Data taken from ChEMBL document CHEMBL5465560, “Selectivity Literature for EUbOPEN Chemogenomic Library” (2024).
One block for each compound: values may come before it.

Legend:
[1] = target: T1, Myotonin-protein kinase (Homo sapiens) (UniProt Q09013); assay: Selectivity interaction (KinomeScan (DiscoverX)) EUB0000666a DMPK; conditions: at 10 µM
T1 sequence (whole entry): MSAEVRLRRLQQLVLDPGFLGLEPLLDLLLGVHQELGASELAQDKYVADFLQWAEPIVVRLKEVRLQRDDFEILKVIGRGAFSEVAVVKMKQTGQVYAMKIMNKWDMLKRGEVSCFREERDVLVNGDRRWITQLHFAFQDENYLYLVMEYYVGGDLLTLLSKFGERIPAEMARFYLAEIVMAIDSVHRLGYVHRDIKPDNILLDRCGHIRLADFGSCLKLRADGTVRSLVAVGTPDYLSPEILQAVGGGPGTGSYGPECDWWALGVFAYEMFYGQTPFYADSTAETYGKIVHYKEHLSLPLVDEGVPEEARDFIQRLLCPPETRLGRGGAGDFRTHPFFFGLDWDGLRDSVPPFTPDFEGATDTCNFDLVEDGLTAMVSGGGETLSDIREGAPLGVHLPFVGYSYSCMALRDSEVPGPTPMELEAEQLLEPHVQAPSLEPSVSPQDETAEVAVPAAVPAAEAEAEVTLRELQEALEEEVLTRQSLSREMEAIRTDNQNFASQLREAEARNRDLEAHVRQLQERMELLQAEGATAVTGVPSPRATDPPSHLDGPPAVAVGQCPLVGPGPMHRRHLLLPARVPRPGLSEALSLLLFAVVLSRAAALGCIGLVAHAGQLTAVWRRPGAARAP

[2] = target: Protein-tyrosine kinase 6 (Homo sapiens, UniProt Q13882); assay: Selectivity interaction (ProQinase) EUB0000171b PTK6
[3] = target: Microtubule-associated serine/threonine-protein kinase 1 (Homo sapiens) (UniProt Q9Y2H9); assay: Selectivity interaction (Ambit KINOMEscan and KiNATiv profiling in Jurkat cells) EUB0000090b MAST1; format: cell-based; conditions: at 1 µM
Misshapen-like kinase 1 = Misshapen-like kinase 1 (Homo sapiens, UniProt Q8N4C8); assay: Selectivity interaction (KinomeScan (DiscoverX)) EUB0001079a MINK1; conditions: at 1 µM
[4] = target: T2, Ribosomal protein S6 kinase delta-1 (Homo sapiens) (UniProt Q96S38); assay: Selectivity interaction (Kinase panel (KiNativ target engagement assay in Jurkat cells)) EUB0001635a RPS6KC1; format: cell-based; conditions: Selectivity number of off-targets 0.0, Selectivity number of targets 233.0, Source Knowledge https://www.sciencedirect.com/science/article/pii/S2451945619300674?via%3Dihub, at 1 µM
T2 sequence (whole entry): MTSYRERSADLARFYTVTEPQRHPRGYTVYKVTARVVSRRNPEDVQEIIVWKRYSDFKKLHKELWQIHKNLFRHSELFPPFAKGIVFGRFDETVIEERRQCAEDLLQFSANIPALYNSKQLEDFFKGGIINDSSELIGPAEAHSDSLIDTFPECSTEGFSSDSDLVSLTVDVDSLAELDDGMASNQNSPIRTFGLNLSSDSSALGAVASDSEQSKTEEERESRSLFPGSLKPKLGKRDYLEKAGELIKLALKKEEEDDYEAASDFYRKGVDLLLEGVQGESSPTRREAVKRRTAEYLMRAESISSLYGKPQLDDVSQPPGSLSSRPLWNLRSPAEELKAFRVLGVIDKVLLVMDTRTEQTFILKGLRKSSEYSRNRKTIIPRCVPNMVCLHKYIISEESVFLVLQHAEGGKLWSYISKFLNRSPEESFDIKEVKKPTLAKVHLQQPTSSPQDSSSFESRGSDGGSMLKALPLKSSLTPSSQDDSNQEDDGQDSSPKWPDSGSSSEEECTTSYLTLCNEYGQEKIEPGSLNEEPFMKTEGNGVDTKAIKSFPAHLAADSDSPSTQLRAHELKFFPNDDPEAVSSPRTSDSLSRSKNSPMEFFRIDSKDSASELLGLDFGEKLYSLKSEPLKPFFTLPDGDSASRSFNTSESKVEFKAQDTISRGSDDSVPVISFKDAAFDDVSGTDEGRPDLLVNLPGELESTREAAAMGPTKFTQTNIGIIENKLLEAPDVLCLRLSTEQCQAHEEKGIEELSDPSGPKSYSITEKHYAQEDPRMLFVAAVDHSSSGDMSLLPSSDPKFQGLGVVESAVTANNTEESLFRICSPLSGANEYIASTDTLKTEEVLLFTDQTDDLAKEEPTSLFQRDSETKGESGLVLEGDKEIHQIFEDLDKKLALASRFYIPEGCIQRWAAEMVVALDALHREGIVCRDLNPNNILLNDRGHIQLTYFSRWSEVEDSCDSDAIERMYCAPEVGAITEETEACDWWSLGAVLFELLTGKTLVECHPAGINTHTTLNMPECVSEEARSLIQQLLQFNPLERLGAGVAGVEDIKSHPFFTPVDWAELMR

[5] = target: T3, Mitogen-activated protein kinase kinase kinase 2 (Homo sapiens) (UniProt Q9Y2U5); assay: Selectivity interaction (KinomeScan (DiscoverX)) EUB0000618a MAP3K2; conditions: at 10 µM
T3 sequence (whole entry): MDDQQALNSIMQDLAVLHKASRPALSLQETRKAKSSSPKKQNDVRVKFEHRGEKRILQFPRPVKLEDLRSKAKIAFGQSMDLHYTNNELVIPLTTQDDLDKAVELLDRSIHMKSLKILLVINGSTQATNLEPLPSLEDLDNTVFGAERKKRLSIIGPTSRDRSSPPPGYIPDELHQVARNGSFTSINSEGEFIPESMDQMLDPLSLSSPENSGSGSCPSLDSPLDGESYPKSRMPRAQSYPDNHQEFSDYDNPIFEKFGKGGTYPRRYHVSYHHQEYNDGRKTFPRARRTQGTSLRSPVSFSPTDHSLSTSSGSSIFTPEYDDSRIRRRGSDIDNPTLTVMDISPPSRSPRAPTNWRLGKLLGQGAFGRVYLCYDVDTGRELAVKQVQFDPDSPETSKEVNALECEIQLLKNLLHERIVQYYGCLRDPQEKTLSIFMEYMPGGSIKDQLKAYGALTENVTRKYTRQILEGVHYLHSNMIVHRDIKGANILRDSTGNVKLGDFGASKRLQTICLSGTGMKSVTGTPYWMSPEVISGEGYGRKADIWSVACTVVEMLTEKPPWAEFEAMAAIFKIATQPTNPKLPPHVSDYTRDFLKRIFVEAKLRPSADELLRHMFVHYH

Protein-tyrosine kinase 6, sequence (Q13882 whole entry, looked up): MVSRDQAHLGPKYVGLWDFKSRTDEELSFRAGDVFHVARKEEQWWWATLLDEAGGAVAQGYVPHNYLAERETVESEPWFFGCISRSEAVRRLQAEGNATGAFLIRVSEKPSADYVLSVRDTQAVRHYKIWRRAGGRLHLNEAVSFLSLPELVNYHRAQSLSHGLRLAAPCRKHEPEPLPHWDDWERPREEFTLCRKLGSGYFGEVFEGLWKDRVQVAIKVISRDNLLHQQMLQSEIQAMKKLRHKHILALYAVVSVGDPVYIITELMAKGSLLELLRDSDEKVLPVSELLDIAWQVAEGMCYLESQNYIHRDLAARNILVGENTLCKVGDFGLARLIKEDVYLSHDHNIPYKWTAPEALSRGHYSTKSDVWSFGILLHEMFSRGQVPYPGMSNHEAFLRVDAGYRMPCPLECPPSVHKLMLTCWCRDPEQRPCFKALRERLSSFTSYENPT
Microtubule-associated serine/threonine-protein kinase 1 (Homo sapiens), sequence (Q9Y2H9 whole entry, looked up): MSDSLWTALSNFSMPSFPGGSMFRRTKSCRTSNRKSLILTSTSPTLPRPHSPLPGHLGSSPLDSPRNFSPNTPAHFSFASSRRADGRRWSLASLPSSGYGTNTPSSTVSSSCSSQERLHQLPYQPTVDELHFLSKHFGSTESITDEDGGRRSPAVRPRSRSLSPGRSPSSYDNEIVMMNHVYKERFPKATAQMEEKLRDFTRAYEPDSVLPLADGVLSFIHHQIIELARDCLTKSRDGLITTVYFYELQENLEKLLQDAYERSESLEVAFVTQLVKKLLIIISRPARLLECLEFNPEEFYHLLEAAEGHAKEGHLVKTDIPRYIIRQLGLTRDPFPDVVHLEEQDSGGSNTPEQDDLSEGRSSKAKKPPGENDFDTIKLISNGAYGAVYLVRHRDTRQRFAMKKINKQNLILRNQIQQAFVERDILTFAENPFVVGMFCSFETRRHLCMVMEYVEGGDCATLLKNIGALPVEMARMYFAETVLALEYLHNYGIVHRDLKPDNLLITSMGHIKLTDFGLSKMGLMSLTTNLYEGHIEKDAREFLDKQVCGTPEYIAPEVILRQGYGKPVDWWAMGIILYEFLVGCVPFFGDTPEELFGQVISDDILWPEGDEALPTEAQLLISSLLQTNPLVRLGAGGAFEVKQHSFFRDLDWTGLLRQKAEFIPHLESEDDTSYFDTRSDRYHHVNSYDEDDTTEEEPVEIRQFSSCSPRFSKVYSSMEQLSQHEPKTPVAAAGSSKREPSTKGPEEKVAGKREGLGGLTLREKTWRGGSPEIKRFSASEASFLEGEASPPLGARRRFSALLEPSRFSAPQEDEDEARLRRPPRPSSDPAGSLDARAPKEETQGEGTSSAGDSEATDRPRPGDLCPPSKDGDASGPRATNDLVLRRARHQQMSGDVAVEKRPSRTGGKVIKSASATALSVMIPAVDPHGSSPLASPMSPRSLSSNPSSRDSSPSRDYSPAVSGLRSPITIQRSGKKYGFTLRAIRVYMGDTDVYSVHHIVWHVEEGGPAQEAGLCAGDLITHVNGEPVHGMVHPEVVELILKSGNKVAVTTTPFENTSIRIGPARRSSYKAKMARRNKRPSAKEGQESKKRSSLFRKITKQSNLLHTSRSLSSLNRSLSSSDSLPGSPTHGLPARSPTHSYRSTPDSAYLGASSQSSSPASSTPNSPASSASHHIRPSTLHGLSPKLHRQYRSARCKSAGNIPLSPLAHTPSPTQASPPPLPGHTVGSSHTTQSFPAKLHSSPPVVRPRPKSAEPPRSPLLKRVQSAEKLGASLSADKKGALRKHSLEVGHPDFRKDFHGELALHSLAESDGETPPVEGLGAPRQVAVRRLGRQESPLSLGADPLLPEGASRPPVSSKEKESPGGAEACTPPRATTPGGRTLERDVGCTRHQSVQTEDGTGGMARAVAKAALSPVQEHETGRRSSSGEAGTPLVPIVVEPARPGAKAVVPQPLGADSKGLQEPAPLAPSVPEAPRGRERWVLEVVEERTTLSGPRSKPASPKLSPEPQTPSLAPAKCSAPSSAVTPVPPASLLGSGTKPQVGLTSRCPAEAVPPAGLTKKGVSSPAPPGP
Misshapen-like kinase 1, sequence (Q8N4C8 whole entry, looked up): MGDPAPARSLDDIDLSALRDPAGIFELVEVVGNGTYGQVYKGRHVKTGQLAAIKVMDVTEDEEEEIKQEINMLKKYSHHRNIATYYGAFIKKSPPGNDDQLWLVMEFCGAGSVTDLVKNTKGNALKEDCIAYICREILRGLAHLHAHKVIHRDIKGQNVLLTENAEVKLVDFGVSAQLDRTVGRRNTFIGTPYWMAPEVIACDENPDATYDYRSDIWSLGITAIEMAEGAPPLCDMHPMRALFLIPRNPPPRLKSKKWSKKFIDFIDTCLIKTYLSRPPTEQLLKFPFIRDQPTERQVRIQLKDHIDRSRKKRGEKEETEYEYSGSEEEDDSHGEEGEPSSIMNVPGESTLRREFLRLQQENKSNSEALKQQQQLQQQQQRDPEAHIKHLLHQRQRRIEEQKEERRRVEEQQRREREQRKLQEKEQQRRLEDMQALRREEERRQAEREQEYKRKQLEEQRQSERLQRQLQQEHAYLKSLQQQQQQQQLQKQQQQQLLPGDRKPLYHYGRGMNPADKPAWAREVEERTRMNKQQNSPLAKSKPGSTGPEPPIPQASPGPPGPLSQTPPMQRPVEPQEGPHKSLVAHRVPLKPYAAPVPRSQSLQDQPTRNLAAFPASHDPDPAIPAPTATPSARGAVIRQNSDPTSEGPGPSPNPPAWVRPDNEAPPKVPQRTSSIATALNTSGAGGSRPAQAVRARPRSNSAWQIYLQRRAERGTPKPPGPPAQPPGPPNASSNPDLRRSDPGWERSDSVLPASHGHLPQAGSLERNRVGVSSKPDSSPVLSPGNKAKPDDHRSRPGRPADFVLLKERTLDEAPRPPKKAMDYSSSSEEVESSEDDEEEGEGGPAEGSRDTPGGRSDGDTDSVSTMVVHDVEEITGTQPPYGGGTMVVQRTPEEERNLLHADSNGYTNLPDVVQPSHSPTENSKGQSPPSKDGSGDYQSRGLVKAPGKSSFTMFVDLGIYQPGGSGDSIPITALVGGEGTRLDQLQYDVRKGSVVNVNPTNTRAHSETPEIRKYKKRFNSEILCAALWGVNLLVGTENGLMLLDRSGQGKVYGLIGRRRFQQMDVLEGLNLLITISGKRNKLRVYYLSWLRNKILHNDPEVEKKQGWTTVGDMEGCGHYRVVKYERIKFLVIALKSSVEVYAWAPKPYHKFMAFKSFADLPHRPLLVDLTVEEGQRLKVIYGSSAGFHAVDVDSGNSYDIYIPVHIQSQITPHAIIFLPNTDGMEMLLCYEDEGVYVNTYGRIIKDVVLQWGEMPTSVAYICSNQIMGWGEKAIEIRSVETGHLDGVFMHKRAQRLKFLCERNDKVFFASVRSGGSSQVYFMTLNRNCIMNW

SMILES: O=C(NOC[C@H](O)CO)c1ccc(F)c(F)c1Nc1ccc(I)cc1F
% of control [1]: 90%

% of control ([2]; at 1 µM): 101% | % of control ([2]; at 5 µM): 105%
SMILES: C=CC(=O)Nc1cccc(C(=O)Nc2ccc(Nc3cc(-c4[nH]c(SC)nc4C)ccn3)cc2)c1

SMILES: CN(C)C/C=C/C(=O)Nc1ccc(C(=O)N2CCCC(Nc3ncc(Cl)c(-c4c[nH]c5ccccc45)n3)C2)cc1 (configuration not stated)
% of control [3]: 95%

SMILES: Nc1cnc(N2CCc3cc(S(=O)(=O)Nc4c(F)cc(Cl)cc4F)cc(N4CCCC4=O)c32)nc1 [TP-020n]
% of control (Misshapen-like kinase 1): 100%

SMILES: C=CC(=O)Nc1ccc(C(=O)Nc2[nH]nc3c2CN(C(=O)N[C@H](CN(C)C)c2ccccc2)C3(C)C)cc1
% of engagement [4]: 0.7%

SMILES: O[C@H]1CC[C@H](Nc2ncc3nc(Nc4c(F)cc(F)cc4F)n([C@H]4CCOC4)c3n2)CC1
% of control [5]: 82%
